Here are results for two molecules from EP2368549A1, “Treating hand-foot syndrome and related pathologies using clonidine or its derivatives” (BioAlliance Pharma, priority 2010, dated 2011).

Series [1] concerns human skin organotypic culture. Conditions: histology of papillary and upper reticular dermis, 24h after substance P addition; clonidine treatment before and during substance P stimulation.
Source text: (§1) Human biopsy samples of clinically healthy human skin were obtained from patients undergoing plastic surgery. All patients gave their written informed consent before the surgery has carried out.
(§2) Skin biopsies were cut into 1 cm2 full thickness pieces and washed three times with antibiotics. Subcutaneous fat and lower dermis were mechanically removed. Skin fragments were transferred onto permeable polycarbonate membrane transwells (12 mm diameter, 12 µm pore size) in a well of 12 well plate (as previously described Boisnic S. et al., [1-3]) containing 700µl of defined medium (DMEM, antibiotics, hormones, pituitary extract, FCS). Explants were maintained at the interface between air and medium with the epithelium uppermost and the dermis exposed to the media by diffusion through the porous membrane.
(§3) Cohesion between skin fragments and inserts was obtained with a polyvinylsiloxane addition type silicone elastomer seal (coltène® president) in such a way that no skin retraction or lateral passage of the product towards the dermis was possible.
(§4) The culture was set up for 36 hours in a humidified atmosphere containing 5% CO2 at 37°C, and medium was daily change, culture supernatants were frozen at -80°C until further analysis.
At the end of culture all human skin fragments were formalin fixed and paraffin embedded. […]
A further series relates to TNFα. The note with it: culture supernatant, 24h after substance P addition; clonidine treatment before and during substance P stimulation (topical formulations 0.05%-1% on the epidermis).
For series [2] the following is noted: clinical trials of breast or colorectal cancer; cited from earlier work.

Source text for TNFα: as §1, §2, §3, §4
The stimulation of the experimental oral human skin inflammatory process was done by the neuropeptide substance P (SP) [1]. […]

Consider `Clc1cccc(Cl)c1NC1=NCCN1` [clonidine, N-(2,6-dichlorophenyl)-4,5-dihydro-1H-imidazol-2-amine], for which, in series [1], the skin oedema entry is listed as “decrease” and the vasodilatation result is reported as “decrease”. For the same molecule, in the series with TNFα, the “proinflammatory cytokines TNFα level” value is on record as “decrease”.

Turning to `CCCCCOC(=O)Nc1nc(=O)n([C@@H]2O[C@H](C)[C@@H](O)[C@H]2O)cc1F` [capecitabine, N4-pentyloxycarbonyl-5'-deoxy-5-fluorocytidine], in series [2], the “overall incidence of HFS” value is on record as “around 50%” and the “patients reporting a severe form (grade 3) of HFS” value is recorded as 17%.
